Data: the supplement of paper PMC10307832

Assays:
Assay in all cases: relative viability (nuclei count vs DMSO), 5 days (fraction); higher = more cells survive
NCI-H1651 = test system: NCI-H1651
How it was run: (§1)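 Medians of duplicate plates are given as relative viability. That measure is the nuclei count in treated wells divided by the count in vehicle wells. Counts were taken on 4× images of lung cancer cell lines in 1536-well plates, 5 days after pin-tool dosing the day after seeding with one drug alone or a fixed anchor-drug dose plus five library-drug doses (not always all listed) in √10 steps.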

NCI-H1395 = test system: NCI-H1395
How it was run: as §1

NCI-H2087 = test system: NCI-H2087
How it was run: as §1

NCI-H1993 = test system: NCI-H1993
How it was run: as §1

NCI-H647 = test system: NCI-H647
How it was run: as §1

NCI-H3122 = test system: NCI-H3122
How it was run: as §1

NCI-H2342 = test system: NCI-H2342
How it was run: as §1

LXF-289 = test system: LXF-289
How it was run: as §1

CAL-12T = test system: CAL-12T
How it was run: as §1

HOP-62 = test system: HOP-62
How it was run: as §1

NCI-H650 = test system: NCI-H650
How it was run: as §1

LCLC-103H = test system: LCLC-103H
How it was run: as §1

NCI-H2023 = test system: NCI-H2023
How it was run: as §1

COR-L 105 = test system: COR-L 105
How it was run: as §1

SK-MES-1 = test system: SK-MES-1
How it was run: as §1

EPLC-272H = test system: EPLC-272H
How it was run: as §1

RERF-LC-KJ = test system: RERF-LC-KJ
How it was run: as §1

NCI-H596 = test system: NCI-H596
How it was run: as §1

COR-L23 = test system: COR-L23
How it was run: as §1

PC-14 = test system: PC-14
How it was run: as §1

NCI-H2085 = test system: NCI-H2085
How it was run: as §1

A-427 = test system: A-427
How it was run: as §1

NCI-H1975 = test system: NCI-H1975
How it was run: as §1

NCI-H2170 = test system: NCI-H2170
How it was run: as §1

CCCCCCCCCCCC1=C(O)C(=O)C=C(O)C1=O [Embelin] + CC(=O)Nc1cccc(-n2c(=O)n(C3CC3)c(=O)c3c(Nc4ccc(I)cc4F)n(C)c(=O)c(C)c32)c1 [Trametinib] (partner 0.02 µM)
relative viability (NCI-H1651; first compound 0.08 µM): 0.845
relative viability (NCI-H1651; first compound 0.8 µM): 0.905
relative viability (NCI-H1651; first compound 2.53 µM): 0.824
relative viability (NCI-H1651; first compound 8 µM): 0.83
relative viability (NCI-H1395; first compound 0.08 µM): 0.996
relative viability (NCI-H1395; first compound 0.8 µM): 1.14
relative viability (NCI-H1395; first compound 2.53 µM): 1.14
relative viability (NCI-H1395; first compound 8 µM): 1.14
relative viability (NCI-H2087; first compound 0.08 µM): 0.147
relative viability (NCI-H2087; first compound 0.8 µM): 0.225
relative viability (NCI-H2087; first compound 2.53 µM): 0.233
relative viability (NCI-H2087; first compound 8 µM): 0.182
relative viability (NCI-H1993; first compound 0.08 µM): 0.513
relative viability (NCI-H1993; first compound 0.8 µM): 0.512
relative viability (NCI-H1993; first compound 2.53 µM): 0.584
relative viability (NCI-H1993; first compound 8 µM): 0.498
relative viability (NCI-H647; first compound 0.08 µM): 0.489
relative viability (NCI-H647; first compound 0.8 µM): 0.528
relative viability (NCI-H647; first compound 2.53 µM): 0.638
relative viability (NCI-H647; first compound 8 µM): 0.446
relative viability (NCI-H3122; first compound 0.08 µM): 0.251
relative viability (NCI-H3122; first compound 0.8 µM): 0.253
relative viability (NCI-H3122; first compound 2.53 µM): 0.238
relative viability (NCI-H3122; first compound 8 µM): 0.263
relative viability (NCI-H2342; first compound 0.08 µM): 0.95
relative viability (NCI-H2342; first compound 0.8 µM): 0.806
relative viability (NCI-H2342; first compound 2.53 µM): 0.866
relative viability (NCI-H2342; first compound 8 µM): 0.757
relative viability (LXF-289; first compound 0.08 µM): 0.715
relative viability (LXF-289; first compound 0.8 µM): 0.737
relative viability (LXF-289; first compound 2.53 µM): 0.722
relative viability (LXF-289; first compound 8 µM): 0.676
relative viability (CAL-12T; first compound 0.08 µM): 0.376
relative viability (CAL-12T; first compound 0.8 µM): 0.386
relative viability (CAL-12T; first compound 2.53 µM): 0.283
relative viability (CAL-12T; first compound 8 µM): 0.295
relative viability (HOP-62; first compound 0.08 µM): 0.402
relative viability (HOP-62; first compound 0.8 µM): 0.472
relative viability (HOP-62; first compound 2.53 µM): 0.476
relative viability (HOP-62; first compound 8 µM): 0.379
relative viability (NCI-H650; first compound 0.08 µM): 0.977
relative viability (NCI-H650; first compound 0.8 µM): 1.47
relative viability (NCI-H650; first compound 2.53 µM): 1.02
relative viability (NCI-H650; first compound 8 µM): 0.987
relative viability (LCLC-103H; first compound 0.08 µM): 0.718
relative viability (LCLC-103H; first compound 0.8 µM): 0.742
relative viability (LCLC-103H; first compound 2.53 µM): 0.674
relative viability (LCLC-103H; first compound 8 µM): 0.698
relative viability (NCI-H2023; first compound 0.08 µM): 0.568
relative viability (NCI-H2023; first compound 0.8 µM): 0.654
relative viability (NCI-H2023; first compound 2.53 µM): 0.613
relative viability (NCI-H2023; first compound 8 µM): 0.495
relative viability (COR-L 105; first compound 0.08 µM): 0.462
relative viability (COR-L 105; first compound 0.8 µM): 0.458
relative viability (COR-L 105; first compound 2.53 µM): 0.464
relative viability (COR-L 105; first compound 8 µM): 0.445
relative viability (SK-MES-1; first compound 0.08 µM): 0.599
relative viability (SK-MES-1; first compound 0.8 µM): 0.588
relative viability (SK-MES-1; first compound 2.53 µM): 0.591
relative viability (SK-MES-1; first compound 8 µM): 0.518
relative viability (EPLC-272H; first compound 0.08 µM): 0.315
relative viability (EPLC-272H; first compound 0.8 µM): 0.282
relative viability (EPLC-272H; first compound 2.53 µM): 0.296
relative viability (EPLC-272H; first compound 8 µM): 0.253
relative viability (RERF-LC-KJ; first compound 0.08 µM): 0.871
relative viability (RERF-LC-KJ; first compound 0.8 µM): 0.977
relative viability (RERF-LC-KJ; first compound 2.53 µM): 0.896
relative viability (RERF-LC-KJ; first compound 8 µM): 0.853
relative viability (NCI-H596; first compound 0.08 µM): 0.832
relative viability (NCI-H596; first compound 0.8 µM): 0.796
relative viability (NCI-H596; first compound 2.53 µM): 0.795
relative viability (NCI-H596; first compound 8 µM): 0.748
relative viability (COR-L23; first compound 0.08 µM): 0.562
relative viability (COR-L23; first compound 0.8 µM): 0.689
relative viability (COR-L23; first compound 2.53 µM): 0.653
relative viability (COR-L23; first compound 8 µM): 0.608
relative viability (PC-14; first compound 0.08 µM): 0.728
relative viability (PC-14; first compound 0.8 µM): 0.839
relative viability (PC-14; first compound 2.53 µM): 0.982
relative viability (PC-14; first compound 8 µM): 0.724
relative viability (NCI-H2085; first compound 0.08 µM): 0.663
relative viability (NCI-H2085; first compound 0.8 µM): 0.579
relative viability (NCI-H2085; first compound 2.53 µM): 0.532
relative viability (NCI-H2085; first compound 8 µM): 0.448
relative viability (A-427; first compound 0.08 µM): 0.732
relative viability (A-427; first compound 0.8 µM): 0.785
relative viability (A-427; first compound 2.53 µM): 0.7
relative viability (A-427; first compound 8 µM): 0.624
relative viability (NCI-H1975; first compound 0.08 µM): 0.38
relative viability (NCI-H1975; first compound 0.8 µM): 0.379
relative viability (NCI-H1975; first compound 2.53 µM): 0.376
relative viability (NCI-H1975; first compound 8 µM): 0.369
relative viability (NCI-H2170; first compound 0.08 µM): 0.946
relative viability (NCI-H2170; first compound 0.8 µM): 0.877
relative viability (NCI-H2170; first compound 2.53 µM): 1.11
relative viability (NCI-H2170; first compound 8 µM): 0.9
